Data from EP4667458A1 (Kanaph Therapeutics Inc., priority 2023, dated 2024).
Where two headings read alike, the source gives them in different places.

Columns and labels:
KRAS^G12C::SOS1 = target: T1, KRAS^G12C::SOS1 (Homo sapiens, UniProt Q07889); experiment: KRAS G12C::SOS1 protein-protein interaction (PPI) inhibition assay (HTRF binding kit)
T1 sequence (Q07889 1-1333): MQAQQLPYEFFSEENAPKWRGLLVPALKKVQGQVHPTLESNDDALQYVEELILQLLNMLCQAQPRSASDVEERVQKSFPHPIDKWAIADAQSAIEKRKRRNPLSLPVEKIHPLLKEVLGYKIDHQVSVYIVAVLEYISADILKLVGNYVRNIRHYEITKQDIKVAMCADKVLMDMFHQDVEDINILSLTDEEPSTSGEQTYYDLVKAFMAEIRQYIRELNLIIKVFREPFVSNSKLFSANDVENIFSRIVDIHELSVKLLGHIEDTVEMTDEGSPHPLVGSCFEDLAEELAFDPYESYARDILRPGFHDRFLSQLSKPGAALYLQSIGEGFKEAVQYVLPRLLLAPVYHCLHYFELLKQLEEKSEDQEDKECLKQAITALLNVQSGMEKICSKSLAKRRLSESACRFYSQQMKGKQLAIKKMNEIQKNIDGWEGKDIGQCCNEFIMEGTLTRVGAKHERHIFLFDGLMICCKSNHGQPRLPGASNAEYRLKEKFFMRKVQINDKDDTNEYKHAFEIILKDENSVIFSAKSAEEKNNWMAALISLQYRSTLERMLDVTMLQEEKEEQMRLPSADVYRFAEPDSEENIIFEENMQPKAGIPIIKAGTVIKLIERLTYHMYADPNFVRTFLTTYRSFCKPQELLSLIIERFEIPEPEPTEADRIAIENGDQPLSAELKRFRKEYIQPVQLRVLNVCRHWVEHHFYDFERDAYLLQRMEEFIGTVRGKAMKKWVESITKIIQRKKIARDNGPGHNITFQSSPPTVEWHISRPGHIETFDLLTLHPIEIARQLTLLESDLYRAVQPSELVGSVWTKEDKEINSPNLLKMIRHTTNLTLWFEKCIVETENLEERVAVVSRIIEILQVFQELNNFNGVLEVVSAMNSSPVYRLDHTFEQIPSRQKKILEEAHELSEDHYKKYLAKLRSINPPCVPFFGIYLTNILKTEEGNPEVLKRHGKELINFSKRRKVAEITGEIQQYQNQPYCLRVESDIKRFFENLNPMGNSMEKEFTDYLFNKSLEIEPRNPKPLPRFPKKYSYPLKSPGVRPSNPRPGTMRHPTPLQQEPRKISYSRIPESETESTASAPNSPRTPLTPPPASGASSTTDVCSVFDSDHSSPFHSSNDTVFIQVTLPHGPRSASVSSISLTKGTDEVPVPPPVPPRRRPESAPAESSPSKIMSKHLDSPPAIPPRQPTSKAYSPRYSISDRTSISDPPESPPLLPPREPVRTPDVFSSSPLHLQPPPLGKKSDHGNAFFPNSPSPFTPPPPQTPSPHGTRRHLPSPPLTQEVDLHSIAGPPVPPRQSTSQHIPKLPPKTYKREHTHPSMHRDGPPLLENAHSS

SOS1 = target: T2, SOS1 (Homo sapiens, UniProt Q07889); experiment: SOS-catalyzed nucleotide exchange assay (HTRF, SOS1-mediated GTP loading of KRAS G12D); assay type: biochemical; conditions: GST-KRAS G12D, HIS-SOS1cat, EDA-GTP-DY-647P1; compound 128 pM to 10 µM; read-out: SOS-catalyzed nucleotide exchange assay (IC50 range, Grade)
T2 construct: adding equal amounts of HIS-SOS1cat (160 nM; Cytoskeleton, US); His; purchased Cytoskeleton, US
T2 sequence (Q07889 564-1049 limits assumed): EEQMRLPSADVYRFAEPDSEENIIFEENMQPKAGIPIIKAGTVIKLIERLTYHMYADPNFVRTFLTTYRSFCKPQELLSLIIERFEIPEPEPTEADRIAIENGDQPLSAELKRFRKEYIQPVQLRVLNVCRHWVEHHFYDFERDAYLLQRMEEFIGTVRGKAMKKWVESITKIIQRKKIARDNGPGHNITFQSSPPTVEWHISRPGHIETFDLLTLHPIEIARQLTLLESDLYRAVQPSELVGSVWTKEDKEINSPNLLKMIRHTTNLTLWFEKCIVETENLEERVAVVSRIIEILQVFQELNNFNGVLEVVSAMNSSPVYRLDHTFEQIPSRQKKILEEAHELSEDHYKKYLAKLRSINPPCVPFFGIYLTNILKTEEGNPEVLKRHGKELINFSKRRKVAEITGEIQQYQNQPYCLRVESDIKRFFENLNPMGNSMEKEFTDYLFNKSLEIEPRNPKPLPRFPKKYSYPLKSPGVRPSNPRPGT
How it was run: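 SOS1cat (HIS-tagged) preincubated 10 min at room temperature with compound (128 pM-10 µM), then GST-KRAS G12D with anti-GST terbium added; GTP loading tracked as HTRF with a DY-647P1 GTP analogue after 30 min, buffer HEPES pH 7.4. GEF-free wells for normalization; IC50 derived.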

IC50 (KRAS^G12C::SOS1)	IC50 (SOS1)	IC50 (KRAS^G12C::SOS1; read-out: KRAS ^G12C::SOS1 PPI assay (IC50 range, Grade), maximum concentration 3 µM, 8 concentrations, three replicates)	Molecule
< 1000 nM	< 1000 nM	–	C[C@@H](NC(=O)c1ccc(=O)n(-c2cc(CO)ccc2F)n1)c1cc(N)cc(C(F)(F)F)c1 [Example 159, N-[(1R)-1-[3-amino-5-(trifluoromethyl)pheny 1]ethyl]-1-[2-fluoro-5-(hydroxymethyl)phenyl] -6-oxo-pyridazine-3-carboxamide]
< 1000 nM	1000 to 10000 nM	–	C[C@@H](NC(=O)c1ccc(=O)n(-c2cccc3[nH]ccc23)n1)c1cc(N)cc(C(F)(F)F)c1 [Example 160, N-[(1R)-1-[3-amino-5-(trifluoromethyl)phenyl]ethyl]-1-(1H-indol-4-yl)-6-oxo-pyridazine-3-carboxamide]
< 1000 nM	< 1000 nM	–	C[C@@H](NC(=O)c1ccc(=O)n(-c2cncc(-c3cnnn3C)c2)n1)c1cccc(C(F)F)c1F [Example B02, N-[(1R)-1-[3-(difluoromethyl)-2-fluoro-phenyl]ethyl]-1-[5-(3-methyltriazol-4-yl)-3-pyridyl]-6-oxo-pyridazine-3-carboxamide]
< 1000 nM	< 1000 nM	–	CCn1nncc1-c1cccc(-n2cc(C(=O)N[C@H](C)c3cccc(C(F)(F)F)c3F)ccc2=O)c1 [Example B04, N-[(R)-1-[2-fluoro-3-(trifluoromethyl)phenyl]ethyl]-1-[m-(1-ethyl-1H-1,2,3-triazol-5-yl)phenyl]-6-oxo-1,6-dihydronicotinamide]
< 1000 nM	< 1000 nM	–	Cc1c([C@@H](C)NC(=O)c2ccc(=O)n(-c3cncc(-c4ccnn4C)c3)n2)cc(N)cc1C(F)(F)F [Example B05, N-[(1R)-1-[5-amino-2-methyl-3-(trifluoromethyl)phenyl]ethyl]-1-[5-(2-methylpyrazol-3-yl)-3-pyridyl]-6-oxo-pyridazine-3-carboxamide]
< 1000 nM	< 1000 nM	–	C[C@@H](NC(=O)c1ccc(=O)n(-c2ccc(F)c(-c3cnnn3C)c2)n1)c1cccc(C(F)(F)F)c1F [Example B06, N-[(R)-1-[2-fluoro-3-(trifluoromethyl)phenyl]ethyl]-1-[4-fluoro-3-(1-methyl-1H-1,2,3-triazol-5-yl)phenyl]-6-oxo-1,6-dihydro-3-pyridazinecarboxamide]
< 1000 nM	< 1000 nM	–	Cc1cc(C(=O)N[C@H](C)c2cc(N)cc(C(F)F)c2)nn(-c2cncc(-c3cnnn3C)c2)c1=O [Example B07, N-[(1R)-1-[3-amino-5-(difluoromethyl)phenyl]ethyl]-5-methyl-1-[5-(3-methyltriazol-4-yl)-3-pyridyl]-6-oxo-pyridizine-3-carboxamide]
< 1000 nM	< 1000 nM	–	C[C@@H](NC(=O)c1ccc(=O)n(-c2cncc(-c3cnnn3C)c2)c1)c1cccc(C(F)(F)F)c1F [Example B08, N-[(1R)-1-[2-fluoro-3-(trifluoromethyl)phenyl]ethyl]-1-[5-(3-methyltriazol-4-yl)-3-pyridyl]-6-oxo-pyridine-3-carboxamide]
< 1000 nM	< 1000 nM	–	C[C@@H](NC(=O)c1ccc(=O)n(-c2cncc(-c3cnnn3C)c2)n1)c1cccc(C(F)(F)CF)c1F [Example B09, (R)-N-(1-(2-fluoro-3-(1,1,2-trifluoroethyl)phenyl)ethyl)-1-(5-(1-methyl-1H-1,2,3-triazol-5-yl)pyridin-3-yl)-6-oxo-1,6-dihydropyridazine-3-carboxamide]
< 1000 nM	< 1000 nM	–	Cc1cc(C(=O)N[C@H](C)c2cccc(C(F)(F)F)c2F)cn(-c2cncc(-c3cnnn3C)c2)c1=O [Example B10, (R)-N-(1-(2-fluoro-3-(trifluoromethyl)phenyl)ethyl)-3-methyl-5'-(1-methyl-1H-1,2,3-triazol-5-yl)-2-oxo-2H-[1,3'-bipyridine]-5-carboxamide]
< 1000 nM	< 1000 nM	–	[2H]C([2H])([2H])n1nncc1-c1cncc(-n2nc(C(=O)N[C@H](C)c3cccc(C(F)(F)F)c3F)ccc2=O)c1 [Example B11, N-[(1R)-1-[2-fluoro-3-(trifluoromethyl)phenyl]ethyl]-6-oxo-1-[5-[3-(trideuteriomethyl)triazol-4-yl]-3-pyridyl]pyridazine-3-carboxamide]
–	1000 to 10000 nM	< 1000 nM	N-[(1R)-1-[3-amino-5-(trifluoromethyl)phenyl]ethyl]-6-oxo-1-[4-(trifluoromethoxy)phenyl]pyridazine-3-carboxamide [Example 154]

Molecule	IC50 (KRAS^G12C::SOS1)	IC50 (SOS1)	IC50 (KRAS^G12C::SOS1; read-out: KRAS ^G12C::SOS1 PPI assay (IC50 range, Grade), maximum concentration 3 µM, 8 concentrations, three replicates)
Cc1cc(C(=O)N[C@H](C)c2cc(N)cc(C(F)(F)F)c2F)nn(-c2cncc(-c3cnnn3C)c2)c1=O [Example B03, N-[(1R)-1-[5-amino-2-fluoro-3-(trifluoromethyl)phenyl]ethyl]-5-methyl-1-[5-(3-methyltriazol-4-yl)-3-pyridyl]-6-oxo-pyridazine-3-carboxamide]	< 1000 nM	< 1000 nM	–
